Assay results as given in patent US10294202B2, “Pyrrolidinones as herbicides” (FMC Corporation, priority 2013, dated 2019).

Assays:
[1] = system: rice; experiment: Test B flooded paddy test; type: in vivo, Oryza sativa; conditions: 250 g ai/ha, Flood; scale of 0 to 100 where 0 is no effect and 100 is complete control
Method in brief: (§1)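 Plants were grown to the 2-leaf stage, then pots were flooded to 3 cm above the soil and compound was applied directly into the paddy water, with that depth held throughout. After 13 to 15 days in a greenhouse, injury was rated visually against untreated controls on a 0 to 100 scale (100 = complete control).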

[2] = system: ducksalad; experiment: Test B flooded paddy test; type: in vivo, Heteranthera limosa; conditions: 250 g ai/ha, Flood; scale of 0 to 100 where 0 is no effect and 100 is complete control
Method in brief: as §1

[3] = system: morningglory; experiment: Test A pre-/postemergence herbicide test; type: in vivo, Ipomoea spp.; conditions: for Morningglory plant response rating: Preemergence, visual rating on 0 to 100 scale (0 no effect, 100 complete control)
Method in brief: (§2)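 Visual injury ratings, 0 = no effect, 100 = complete control, taken ~10 days after treatment against untreated greenhouse controls. Preemergence: directed soil spray onto seeded loam/sand pots. Postemergence: spray onto plants at one- to two-leaf stage, 2–10 cm tall.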

[4] = system: giant foxtail; experiment: Test A pre-/postemergence herbicide test; type: in vivo, Setaria faberii; conditions: for Foxtail, Giant plant response rating: Preemergence, visual rating on 0 to 100 scale (0 no effect, 100 complete control)
Method in brief: as §2

[5] = system: pigweed; experiment: Test A pre-/postemergence herbicide test; type: in vivo, Amaranthus retroflexus; conditions: for Pigweed plant response rating: Preemergence, visual rating on 0 to 100 scale (0 no effect, 100 complete control)
Method in brief: as §2

[6] = system: velvetleaf; experiment: Test A pre-/postemergence herbicide test; type: in vivo, Abutilon theophrasti; conditions: for Velvetleaf plant response rating: Preemergence, visual rating on 0 to 100 scale (0 no effect, 100 complete control)
Method in brief: as §2

[7] = system: wheat; experiment: Test A pre-/postemergence herbicide test; type: in vivo, Triticum aestivum; conditions: for Wheat plant response rating: Preemergence, visual rating on 0 to 100 scale (0 no effect, 100 complete control)
Method in brief: as §2

[8] = system: barnyardgrass; experiment: Test A pre-/postemergence herbicide test; type: in vivo, Echinochloa crus-galli; conditions: for Barnyardgrass plant response rating: Preemergence, visual rating on 0 to 100 scale (0 no effect, 100 complete control)
Method in brief: as §2

[9] = system: barnyardgrass; experiment: Test B flooded paddy test; type: in vivo, Echinochloa crus-galli; conditions: 250 g ai/ha, Flood; scale of 0 to 100 where 0 is no effect and 100 is complete control
Method in brief: as §1

[10] = system: sedge, umbrella; experiment: Test B flooded paddy test; type: in vivo, Cyperus difformis; conditions: 250 g ai/ha, Flood; scale of 0 to 100 where 0 is no effect and 100 is complete control
Method in brief: as §1

[11] = system: corn; experiment: Test A pre-/postemergence herbicide test; type: in vivo, Zea mays; conditions: for Corn plant response rating: Preemergence, visual rating on 0 to 100 scale (0 no effect, 100 complete control)
Method in brief: as §2

[12] = system: crabgrass, large; experiment: Test A pre-/postemergence herbicide test; type: in vivo, Digitaria sanguinalis; conditions: for Crabgrass, Large plant response rating: Preemergence, visual rating on 0 to 100 scale (0 no effect, 100 complete control)
Method in brief: as §2

[13] = Postemergence, 125 g ai/ha, 0 to 100 scale, 0 no effect, 100 complete control
[14] = Postemergence, 500 g ai/ha, 0 to 100 scale (0 no effect, 100 complete control)
[15] = preemergence, 500 g ai/ha, 0 to 100 scale
[16] = preemergence, 500 g ai/ha, 0 to 100 scale (0 no effect, 100 complete control)

O=C1NCC(c2ccc(Cl)nc2)C1C(=O)Nc1ccccc1F (stereo not drawn) [Compound 41]
90: Plant response rating, Crabgrass, Large [12, 15]
10: Foxtail, Giant plant response rating ([4]; 125 g ai/ha)
60: Plant response rating, Barnyardgrass [8, 16] | Plant response rating, Crabgrass, Large [12, 14] | Crabgrass, Large plant response rating ([12]; 125 g ai/ha)
0: Plant response rating, Rice [1] | Plant response rating, Morningglory [3, 13] | Plant response rating, Morningglory [3, 14] | Plant response rating, Foxtail, Giant [4, 13] | Plant response rating, Foxtail, Giant [4, 14] | Plant response rating, Pigweed [5, 13] | Pigweed plant response rating ([5]; 125 g ai/ha) | Plant response rating, Pigweed [5, 15] | Plant response rating, Velvetleaf [6, 13] | Velvetleaf plant response rating ([6]; 125 g ai/ha) | Plant response rating, Velvetleaf [6, 15] | Plant response rating, Wheat [7, 13] | Plant response rating, Wheat [7, 14] | Wheat plant response rating ([7]; 125 g ai/ha) | Plant response rating, Wheat [7, 15] | Plant response rating, Barnyardgrass [8, 13] | Plant response rating, Barnyardgrass [9] | Plant response rating, Corn [11, 13] | Plant response rating, Corn [11, 14] | Corn plant response rating ([11]; 125 g ai/ha) | Plant response rating, Corn [11, 15]
30: Plant response rating, Pigweed [5, 14] | Plant response rating, Velvetleaf [6, 14] | Barnyardgrass plant response rating ([8]; 125 g ai/ha) | Plant response rating, Crabgrass, Large [12, 13]
70: Plant response rating, Ducksalad [2] | Plant response rating, Foxtail, Giant [4, 15]
20: Plant response rating, Sedge, Umbrella [10]
50: Plant response rating, Barnyardgrass [8, 14]

O=C1NCC(c2ccc(F)c(F)c2)C1C(=O)Nc1ccccn1 (stereo not drawn) [Compound 45]
50: Plant response rating, Morningglory [3, 14] | Foxtail, Giant plant response rating ([4]; 125 g ai/ha) | Plant response rating, Barnyardgrass [8, 13]
20: Plant response rating, Rice [1] | Plant response rating, Foxtail, Giant [4, 13]
90: Plant response rating, Crabgrass, Large [12, 15]
40: Plant response rating, Morningglory [3, 13] | Plant response rating, Sedge, Umbrella [10]
10: Barnyardgrass plant response rating ([8]; 125 g ai/ha)
70: Plant response rating, Foxtail, Giant [4, 14]
60: Plant response rating, Crabgrass, Large [12, 13]
0: Morningglory plant response rating ([3]; 125 g ai/ha) | Plant response rating, Morningglory [3, 15] | Plant response rating, Pigweed [5, 13] | Plant response rating, Pigweed [5, 14] | Pigweed plant response rating ([5]; 125 g ai/ha) | Plant response rating, Pigweed [5, 15] | Plant response rating, Velvetleaf [6, 13] | Plant response rating, Velvetleaf [6, 14] | Velvetleaf plant response rating ([6]; 125 g ai/ha) | Plant response rating, Velvetleaf [6, 15] | Plant response rating, Wheat [7, 13] | Plant response rating, Wheat [7, 14] | Wheat plant response rating ([7]; 125 g ai/ha) | Plant response rating, Wheat [7, 15] | Plant response rating, Barnyardgrass [9] | Corn plant response rating ([11]; 125 g ai/ha) | Plant response rating, Corn [11, 15]
80: Plant response rating, Ducksalad [2] | Plant response rating, Foxtail, Giant [4, 15] | Plant response rating, Barnyardgrass [8, 14] | Plant response rating, Barnyardgrass [8, 16] | Plant response rating, Crabgrass, Large [12, 14] | Crabgrass, Large plant response rating ([12]; 125 g ai/ha)

O=C1NCC(c2ccc(F)c(F)c2)C1C(=O)Nc1cccc[n+]1[O-] (stereo not drawn) [Compound 47]
10: Crabgrass, Large plant response rating ([12]; 125 g ai/ha)
20: Plant response rating, Morningglory [3, 14]
0: Plant response rating, Rice [1] | Plant response rating, Ducksalad [2] | Plant response rating, Morningglory [3, 13] | Morningglory plant response rating ([3]; 125 g ai/ha) | Plant response rating, Morningglory [3, 15] | Plant response rating, Foxtail, Giant [4, 13] | Plant response rating, Foxtail, Giant [4, 14] | Foxtail, Giant plant response rating ([4]; 125 g ai/ha) | Plant response rating, Foxtail, Giant [4, 15] | Plant response rating, Pigweed [5, 13] | Plant response rating, Pigweed [5, 14] | Pigweed plant response rating ([5]; 125 g ai/ha) | Plant response rating, Pigweed [5, 15] | Plant response rating, Velvetleaf [6, 13] | Plant response rating, Velvetleaf [6, 14] | Velvetleaf plant response rating ([6]; 125 g ai/ha) | Plant response rating, Velvetleaf [6, 15] | Plant response rating, Wheat [7, 13] | Plant response rating, Wheat [7, 14] | Wheat plant response rating ([7]; 125 g ai/ha) | Plant response rating, Wheat [7, 15] | Plant response rating, Barnyardgrass [8, 13] | Plant response rating, Barnyardgrass [8, 14] | Barnyardgrass plant response rating ([8]; 125 g ai/ha) | Plant response rating, Barnyardgrass [8, 16] | Plant response rating, Barnyardgrass [9] | Plant response rating, Sedge, Umbrella [10] | Corn plant response rating ([11]; 125 g ai/ha) | Plant response rating, Corn [11, 15] | Plant response rating, Crabgrass, Large [12, 13] | Plant response rating, Crabgrass, Large [12, 14]
60: Plant response rating, Crabgrass, Large [12, 15]

O=C1NCC(c2cc(F)c(F)c(F)c2)C1C(=O)Nc1cccc([N+](=O)[O-])c1 (stereo not drawn) [Compound 49]
20: Foxtail, Giant plant response rating ([4]; 125 g ai/ha) | Plant response rating, Barnyardgrass [8, 14] | Plant response rating, Barnyardgrass [8, 16] | Plant response rating, Crabgrass, Large [12, 13]
0: Plant response rating, Rice [1] | Plant response rating, Morningglory [3, 13] | Plant response rating, Morningglory [3, 14] | Morningglory plant response rating ([3]; 125 g ai/ha) | Plant response rating, Morningglory [3, 15] | Plant response rating, Foxtail, Giant [4, 13] | Plant response rating, Pigweed [5, 13] | Plant response rating, Pigweed [5, 14] | Pigweed plant response rating ([5]; 125 g ai/ha) | Plant response rating, Pigweed [5, 15] | Plant response rating, Velvetleaf [6, 13] | Plant response rating, Velvetleaf [6, 14] | Velvetleaf plant response rating ([6]; 125 g ai/ha) | Plant response rating, Velvetleaf [6, 15] | Plant response rating, Wheat [7, 13] | Plant response rating, Wheat [7, 14] | Wheat plant response rating ([7]; 125 g ai/ha) | Plant response rating, Wheat [7, 15] | Plant response rating, Barnyardgrass [8, 13] | Barnyardgrass plant response rating ([8]; 125 g ai/ha) | Plant response rating, Barnyardgrass [9] | Plant response rating, Corn [11, 13] | Plant response rating, Corn [11, 14] | Corn plant response rating ([11]; 125 g ai/ha) | Plant response rating, Corn [11, 15]
90: Plant response rating, Crabgrass, Large [12, 15]
40: Plant response rating, Foxtail, Giant [4, 14] | Plant response rating, Sedge, Umbrella [10]
70: Plant response rating, Ducksalad [2] | Plant response rating, Foxtail, Giant [4, 15] | Plant response rating, Crabgrass, Large [12, 14] | Crabgrass, Large plant response rating ([12]; 125 g ai/ha)
